From ChEMBL document CHEMBL5365471, “Discovery of marine phidianidine-based Nrf2 activators and their potential against oxLDL- and HG-induced injury in HUVECs” (Bioorg Med Chem Lett, 2023)
The source made the active and inactive calls. No cut-off for these calls is given here.

Experiments:
HUVEC [1] = test: Cytotoxicity against HUVEC assessed as effect on cell viability by SRB assay; type: toxicity, cell-based; conditions: human
[2] = biological target: T1, Nuclear factor erythroid 2-related factor 2 (Homo sapiens) (UniProt Q16236); test: Induction of Nrf2/ARE activation in human Hela cells at 1 uM measured after 12 to 24 hrs by luciferase reporter gene assay relative to control; type: cell-based; conditions: filed as activator, time 12-24 hrs
T1 sequence (whole entry): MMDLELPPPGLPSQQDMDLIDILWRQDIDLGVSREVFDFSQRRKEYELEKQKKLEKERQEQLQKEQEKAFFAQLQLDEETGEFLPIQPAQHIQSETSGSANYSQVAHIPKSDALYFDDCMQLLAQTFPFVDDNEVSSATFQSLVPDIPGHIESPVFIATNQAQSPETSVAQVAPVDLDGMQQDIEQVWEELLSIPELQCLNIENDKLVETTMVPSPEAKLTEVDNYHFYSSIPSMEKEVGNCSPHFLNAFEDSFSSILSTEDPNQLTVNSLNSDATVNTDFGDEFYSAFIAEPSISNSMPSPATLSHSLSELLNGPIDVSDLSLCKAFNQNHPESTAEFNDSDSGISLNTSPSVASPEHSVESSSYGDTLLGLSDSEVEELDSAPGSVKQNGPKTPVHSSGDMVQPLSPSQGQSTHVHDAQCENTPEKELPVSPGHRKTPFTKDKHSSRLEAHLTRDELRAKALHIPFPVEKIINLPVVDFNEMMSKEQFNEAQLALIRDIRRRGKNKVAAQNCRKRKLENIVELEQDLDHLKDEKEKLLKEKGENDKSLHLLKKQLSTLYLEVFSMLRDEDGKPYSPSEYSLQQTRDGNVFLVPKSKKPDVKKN

[3] = biological target: T1, Nuclear factor erythroid 2-related factor 2 (Homo sapiens); test: Induction of Nrf2/ARE activation in human Hela cells at 10 uM measured after 12 to 24 hrs by luciferase reporter gene assay relative to control; type: cell-based; conditions: filed as activator, time 12-24 hrs
[4] = biological target: T1, Nuclear factor erythroid 2-related factor 2 (Homo sapiens); test: Induction of Nrf2/ARE activation in human Hela cells at 20 uM measured after 12 to 24 hrs by luciferase reporter gene assay relative to control; type: cell-based; conditions: filed as activator, time 12-24 hrs
[5] = biological target: T1, Nuclear factor erythroid 2-related factor 2 (Homo sapiens); test: Induction of Nrf2/ARE activation in human Hela cells at 5 uM measured after 12 to 24 hrs by luciferase reporter gene assay relative to control; type: cell-based; conditions: filed as activator, time 12-24 hrs
HUVEC [6] = test: Cytoprotective activity against oxLDL-induced HUVEC cell damage assessed as increase in cell viability at 10 uM by SRB assay; type: functional, cell-based; conditions: Homo sapiens

SMILES	Activity (HUVEC [1])	fold change (FC) [2]	fold change (FC) [3]	fold change (FC) [4]	fold change (FC) [5]	Activity (HUVEC [6])
O=C(/C=C/c1ccc(Cl)c(Cl)c1)N1CCN(Cc2noc(Cc3c[nH]c4ccccc34)n2)CC1	Non-Toxic	1.34	6.64	7.09	3.76	Active
CS(=O)(=O)c1ccc(C(=O)N2CCN(Cc3noc(Cc4c[nH]c5ccccc45)n3)CC2)cc1		1.45	1.52	1.67	1.5	
Cc1ccc(CN2CCN(Cc3noc(Cc4c[nH]c5ccccc45)n3)CC2)cc1		1.18	2.11	2.45	1.78	
O=C(/C=C/c1ccccc1)N1CCN(Cc2noc(Cc3c[nH]c4ccccc34)n2)CC1		1.05	2.57	2.89	1.32	
Cc1ccc(C(=O)N2CCN(Cc3noc(Cc4c[nH]c5ccccc45)n3)CC2)cc1		1.04	1.23	1.36	1.11	
Brc1ccc(CN2CCN(Cc3noc(Cc4c[nH]c5ccccc45)n3)CC2)cc1		1.45	3.14	3.56	2.16	
Brc1cccc(CN2CCN(Cc3noc(Cc4c[nH]c5ccccc45)n3)CC2)c1		1.12	1.31	1.54	1.25	
O=C(c1ccc(Br)cc1)N1CCN(Cc2noc(Cc3c[nH]c4ccccc34)n2)CC1		1.15	1.28	1.52	1.21	
c1ccc2cc(CN3CCN(Cc4noc(Cc5c[nH]c6ccccc56)n4)CC3)ccc2c1		1.09	1.86	2.04	1.51	
COc1ccc(OC)c(/C=C/C(=O)N2CCN(Cc3noc(Cc4c[nH]c5ccccc45)n3)CC2)c1		1.12	4.35	3.66	1.77	
CS(=O)(=O)c1ccc(CN2CCN(Cc3noc(Cc4c[nH]c5ccccc45)n3)CC2)cc1		1.11	3.15	3.78	2.04	
COc1ccc(/C=C/C(=O)N2CCN(Cc3noc(Cc4c[nH]c5ccccc45)n3)CC2)cc1OC		1.34	5.79	7.22	2.93	
N#Cc1ccc(C(=O)N2CCN(Cc3noc(Cc4c[nH]c5ccccc45)n3)CC2)cc1		1.18	1.37	1.4	1.25	
CC(C)(C)c1cc(O)ccc1O		1.17	1.98	2.78	1.24	
COc1cc(/C=C/C(=O)N2CCN(Cc3noc(Cc4c[nH]c5ccccc45)n3)CC2)cc(OC)c1O		1.23	2.65	3.08	1.87	
O=C(/C=C/c1cccc(O)c1)N1CCN(Cc2noc(Cc3c[nH]c4ccccc34)n2)CC1	Non-Toxic	2.3	7.04	7.21	4.71	Active
c1ccc(CN2CCN(Cc3noc(Cc4c[nH]c5ccccc45)n3)CC2)cc1		1.09	1.64	2.09	1.51	

SMILES	Activity (HUVEC [1])	fold change (FC) [2]	fold change (FC) [3]	fold change (FC) [4]	fold change (FC) [5]	Activity (HUVEC [6])
COc1cc(OC)c(OC)cc1/C=C/C(=O)N1CCN(Cc2noc(Cc3c[nH]c4ccccc34)n2)CC1	Non-Toxic	1.32	5.79	5.46	2.79	inactive
O=C(/C=C/c1ccc(O)c(O)c1)N1CCN(Cc2noc(Cc3c[nH]c4ccccc34)n2)CC1		1.41	6.92	7.86	2.96	
COc1cccc(CN2CCN(Cc3noc(Cc4c[nH]c5ccccc45)n3)CC2)c1		1.15	1.43	1.47	1.12	
O=C(/C=C/c1ccc(Cl)cc1)N1CCN(Cc2noc(Cc3c[nH]c4ccccc34)n2)CC1	Non-Toxic	1.21	4.09	6.12	2.24	Active
COc1cccc(/C=C/C(=O)N2CCN(Cc3noc(Cc4c[nH]c5ccccc45)n3)CC2)c1		1.09	2.97	4.07	1.89	
COc1cc(/C=C/C(=O)N2CCN(Cc3noc(Cc4c[nH]c5ccccc45)n3)CC2)ccc1O		1.29	3.12	3.56	2.34	
O=C(/C=C/c1ccc2c(c1)OCO2)N1CCN(Cc2noc(Cc3c[nH]c4ccccc34)n2)CC1		1.12	4.97	3.24	2.07	
O=C(/C=C/c1cccc(Br)c1)N1CCN(Cc2noc(Cc3c[nH]c4ccccc34)n2)CC1	Non-Toxic	1.31	3.97	2.56	1.86	inactive
COc1ccc(/C=C/C(=O)N2CCN(Cc3noc(Cc4c[nH]c5ccccc45)n3)CC2)cc1		1.22	1.96	2.07	1.65	
O=C(c1ccccc1)N1CCN(Cc2noc(Cc3c[nH]c4ccccc34)n2)CC1		1.03	1.44	1.21	1.31	
O=C(/C=C/c1ccc(O)cc1)N1CCN(Cc2noc(Cc3c[nH]c4ccccc34)n2)CC1	Non-Toxic	1.52	6.25	5.41	3.44	inactive
O=C(/C=C/c1ccccc1O)N1CCN(Cc2noc(Cc3c[nH]c4ccccc34)n2)CC1		1.2	6.31	6.08	3.01	
Fc1cccc(CN2CCN(Cc3noc(Cc4c[nH]c5ccccc45)n3)CC2)c1		1.36	1.54	1.86	1.42	
COc1ccccc1/C=C/C(=O)N1CCN(Cc2noc(Cc3c[nH]c4ccccc34)n2)CC1		1.23	3.12	4.25	2.41	
COc1cc(/C=C/C(=O)N2CCN(Cc3noc(Cc4c[nH]c5ccccc45)n3)CC2)cc(OC)c1OC		1.24	6.23	6.86	2.6	
COc1cccc(/C=C/C(=O)N2CCN(Cc3noc(Cc4c[nH]c5ccccc45)n3)CC2)c1OC	Non-Toxic	2.15	6.91	6.37	3.65	inactive
